Assay results taken from patent US10463685B2, “Telomerase mediated telomere altering compounds” (The Board of Regents of The University of Texas System, priority 2013, dated 2019).
Like-named read-outs stand apart in the source and are kept apart here. [tNP] = thio-phosphoramidate internucleoside linkage; {Palm} = palmitoyl group

Experiments:
[1] = test system: A549 human lung cancer cells; assay: Tumor growth in xenograft animal model; assay type: in vivo, mice; details: 2.5 mg/kg every day
Experimental: Doses of 2.5 mg/kg of 6-thio-dG and 2.5 mg/kg of 6-thio-G were injected every day into mice after tumor implantation and providing time for tumor initiation. DMSO injections were used for the control. The volume of the tumor was measured.

[2] = assay type: in vivo
Experimental: Six WT mice were treated with 1.67 mg of 6-thio-dG/kg of body weight daily. Six WT mice were treated with 1.67 mg of 6-thio-G/kg of body weight daily. Six WT mice were treated with 5 mg of 6-thio-dG/kg of body weight daily. Six WT mice were treated with 5 mg of 6-thio-G/kg of body weight daily. The mice were given the appropriate dosage and weighed daily for 25 days. […] In comparison, the mice receiving 6-thio-G at the same dose lost between 1-2 grams (6-12% of initial weight) over the course of the 25 day treatment. […] In comparison, the mice receiving 6-thio-G at the same dose loss around 2 grams and all mice died by the 15th day of treatment.

[3] = test system: BJ fibroblast cells; assay: Telomere length assay (TRF), long-term culture; assay type: cell-based, human; details: BJ fibroblasts, 10 weeks
Experimental: (§1) For long-term cellular experiments, HCT116 (1,000 cells/cm^2) and BJ (10,000 cells/cm^2) cells were fed with 6-thio-dG (1, 3, 10 μM) containing medium every three days. The cells were counted and replated every week for 10-16 weeks. Additionally, HCT116 cells (1,000 cells/cm^2) were fed with 6-thio-G (1, 3, 10 μM) every three days and each week cells were counted, collected for TRF (Telomere Restriction Fragment) analysis and replated. HCT116 cells, following treatment with 10 μM 6-thio-dG for 12 weeks, were then treated with a combination of 10 μM 6-thio-dG and […] GRN163L for 2-4 weeks.
1×10^6 cells were collected and washed with PBS. DNA was isolated using the manufacturer's instructions (Qiagen, Valencia, Calif.). 2.5 μg DNA was digested with six different restriction enzymes (HhaI, HinfI, MspI, HaeIII, RsaI, AluI) (New England Bio, Ipswich, Mass.) and incubated at 37° C. overnight. […] Gels were exposed to a PhosphorImager screen overnight and analyzed using a Typhoon PhosphorImager scanner system (Molecular Dynamics).
To determine if 6-thio-dG and 6-thio-G causes progressive telomere shortening, telomere lengths of treated cells were evaluated by TRF assay. […]

[4] = test system: HCT116 cells; assay: TIF assay, gamma-H2AX and TRF2 immuno-staining; assay type: cell-based, human; details: HCT116, 3 μM
Experimental: Briefly, HCT116 cells were plated in 4-well chamber slides and after the cells attached to the surface, either 3 μM 6-thio-dG or 3 μM 6-thio-G was added to the medium at different time points (0, 30 min, 12 h, 24 h, 48 h, 72 h). […] TIFs were quantified using Imaris software.
Cancer HCT116 cells were seeded in chamber slides. Following cell attachment, 6-thio-dG (3 μM) and 6-thio-G (3 μM) were added to fresh medium at various time points (0, 30 min, 2 h, 12 h, 24 h, 48 h, 72 h). To test if 6-thio-dG and 6-thio-G cause telomere dysfunction in cancer cells, TIF analysis was conducted. […] 6-thio-dG treatment causes a 2.8-fold increase in telomeric DNA damage as compared to 6-thio-G after 72 h (FIG. 4).

[5] = Toxicity testing in rats; assay type: in vivo; details: for mortality: rats
Experimental: Six rats were treated with 15 mg of 6-thio-dG/kg of body weight every two days. […] Another 5 rats were treated with 50 mg of 6-thio-dG/kg of body weight every other day. All rats died after 12 days.

[6] = test system: HCT116 cells; assay: Cell count and morphology after one week of treatment; assay type: cell-based, human; details: 3 μM, twice during one week
Text: HCT116 represents a human colon cancer cells, A549 models human lung epithelial cancer cells, H2882 models human lung epithelial cancer cells, HCC2429 models human lung epithelial cancer cells, HCC827 models human lung epithelial cancer cells, HCC15 models human lung epithelial cancer cells, H2087 models human lung epithelial cancer cells, HCC4017 models human lung epithelial cancer cells, HCC515 models human lung epithelial cancer cells, H2009 models human lung epithelial cancer cells, BJ-hTERT cells model telomerase expressing normal human fibroblast cells, and BJ human fibroblasts (telomerase silent) were grown in a Media X (Hyclone, Logan, Utah) supplemented with 10% cosmic calf serum (Hyclone).
Cancer HCT116 and normal BJ fibroblast cells were treated with 6-thio-dG (3 μM) and 6-thio-G (3 μM) twice during one week. Following one week of the treatment, cell morphology was monitored, and then the cells were collected and counted.

[7] = test system: HCT116 cells; assay: Telomere length assay (TRF), long-term culture; assay type: cell-based, human
Experimental: as §1
1×10^6 cells were collected and washed with PBS. DNA was isolated using the manufacturer's instructions (Qiagen, Valencia, Calif.). 2.5 μg DNA was digested with six different restriction enzymes (HhaI, HinfI, MspI, HaeIII, RsaI, AluI) (New England Bio, Ipswich, Mass.) and incubated at 37° C. overnight. Digested DNA was separated on a 0.7% agarose gel overnight at 70 V. The terminal restriction fragment (TRF) gel was denatured for 20 min in denaturating solution (0.5 M NaOH, 1.5 M NaCl, pH 13.2) and dried on Whatman 3 MM paper under vacuum for 3 hours at 56° C. The gel was neutralized for 15 minutes in neutralization buffer (1.5 M NaCl, 0.5 M Tris-HCl, pH 8.0) and then probed with a radiolabeled telomeric probe (C-rich) for 16 hours at 42° C. in 5×SSC buffer, 5×Denhardt's solution, 10 mmol/L Na2HPO4, and 1 mmol/L Na2H2P2O7. The gel was washed once with 2×SSC, 0.1% SDS, twice with 0.5×SSC, 0.1% SDS and then twice with 0.5×SSC, 1% SDS at room temperature for 15 min. Gels were exposed to a PhosphorImager screen overnight and analyzed using a Typhoon PhosphorImager scanner system (Molecular Dynamics).
To determine if 6-thio-dG and 6-thio-G causes progressive telomere shortening, telomere lengths of treated cells were evaluated by TRF assay. Cancer HCT116 and normal BJ fibroblast cells were treated with 1 μM or 10 μM of 6-thio-dG for 1-12 weeks every 3 days. In addition, HCT116 cells were also treated with 1 μM or 10 μM 6-thio-G for 1-10 weeks every 3 days to determine if there is any effect of this molecule on telomeric length maintenance. The control was untreated. Each week samples were collected for TRF analysis at 1×10^6 cells/sample at 1, 5, and 12 weeks for cells treated with 6-thio-dG and 1, 5, and 10 for cells treated with 6-thio-G.
HCT116 cells were treated with either 10 μM 6-thio-dG alone for 12-16 weeks, or with 3 μM GRN163L alone for 11 weeks. Then, these long term 6-thio-dG treated surviving cells were cultured with a combination of 6-thio-dG (10 μM) and/or GRN163L (3 μM) for 2-4 additional weeks. […] Specifically, the HCT116 cells were treated beyond the 12 weeks of 6-thio-dG treatment with either GRN163L only or GRN163L+6-thio-dG, for an additional 2 and 4 weeks to determine if there is an effect on telomere length.

Compound | histology of the residual tumors [1] | mortality ([2]; WT mice, 5 mg/kg daily, by the 15th day of treatment) | weight lost ([2]; mouse, in vivo, 5 mg/kg) | telomere shortening (TRF) compared to untreated control [3] | rate of tumor growth (tumor volume) compared to the control and 6-thio-G [1] | genomic DNA damage compared to 6-thio-G [4] | signs of impaired function in remaining animals ([5]; rat, in vivo, 15 mg/kg) | mortality ([5]; 15 mg/kg every two days, after 6 injections, six rats) | mortality ([5]; 50 mg/kg every other day, after 12 days, 5 rats) | cell count / cell death [6] | telomere length on continued treatment ([7]; HCT116, 10 μM, 12 weeks versus 16 weeks) | telomere shortening (TRF) ([7]; HCT116, 1 or 10 μM every 3 days, one week and five weeks) | telomere length after return to medium without drug ([7]; HCT116, 12 weeks 6-thio-dG, then no drug for 2-4 weeks) | telomere shortening (TRF) compared to the control ([7]; HCT116, 3 μM alone, after 11 weeks) | telomere shortening compared with cells cultured with 6-thio-dG for 12, 14 and 16 weeks ([7]; HCT116, after 12 weeks of 10 μM 6-thio-dG, additional 2 and 4 weeks of treatment)
Nc1nc2nc[nH]c2c(=S)[nH]1 [6-thio-G, 6-thioguanine, reference compound] | mostly “healthy” growing cancerous cells | all mice died | around 2 grams | did not show enhanced telomere shortening | – | – | – | – | – | – | – | – | – | – | –
Nc1nc2c(ncn2[C@H]2C[C@H](O)[C@@H](CO)O2)c(=S)[nH]1 [6-thio-dG, 6-thio-deoxyguanosine] | mostly fibrotic and often associated with apoptotic and inflammatory cells | – | – | did not show enhanced telomere shortening | rate of tumor growth was less | overall increase in genomic DNA damage | no signs of impaired function | One rat died | All rats died | death of the vast majority of HCT116 cells | stabilized telomeres | telomere shortening was detectable | remained about the same | – | –
GRN163L: 13-mer thio-phophoramidate oligonucleotide 5′-TAGGGTTAGACAA-3′ with polmitoyl group at the 5′-end; direct competitive inhibitor of telomerase (all [tNP], 5' {Palm}, sugars by position and methylation of C not given here) [reference compound] | – | – | – | – | – | – | – | – | – | – | – | – | – | did not show any significant telomere shortening | increased telomere shortening
